# In patent US20250206779A1, “ANGIOTENSIN-(1-9) ANALOGUE BASED ON D AMINO ACIDS, PHARMACEUTICAL COMPOSITIONS AND USES THEREOF” (UNIVERSIDAD DE CHILE, priority 2021, published 2025):
# Entries after “also recorded” stand apart in the source; their conditions may differ. Where a SMILES comes first, the peptide text is derived from it. [ ]: non-standard residue; d: D form.
# Legend:
# [1] = system: spontaneously hypertensive rats (SHR); assay: Blood pressure in spontaneously hypertensive rats; type: in vivo, rat; conditions: SHR, 300, 600, 1200 ng/kg/min, osmotic minipumps, 14 days
# Protocol: (§1) Experimental animal model. All procedures were performed in accordance with the Guide for the Care and Use of Laboratory Animals published by the U.S. National Institutes of Health (NIH Publication 85 23, 1985) and approved by our Institutional Bioethics Committee. The animals were housed under the continuous professional monitoring of the Medical Veterinary staff in the animal facility of the Pontificia Universidad Católica de Chile, under the following conditions: 12-h light-dark cycle; 21° C. ambient temperature; 50% humidity; adequate ventilation; noise-free environment; and food and water ad libitum. Male spontaneously hypertensive rats (SHR, age 12 weeks) and normotensive Wistar Kyoto rats (WKY, 12 weeks age) were used. […] Systolic blood pressure (SBP), diastolic blood pressure (DBP) and body weight (BW) were measured at the end of the treatment period and the animals were then sacrificed.
# Hemodynamic evaluations. SBP and DBP were measured twice per week by a researcher blinded to study group, using a CODA 2 noninvasive pressure device with volume-pressure recording (Kent Scientific Corporation, Torrington, CT, USA). […]
# [2] = system: spontaneously hypertensive rats (SHR); assay: Cardiac hypertrophy by morphometry analysis in SHR; type: in vivo, rat; conditions: SHR, 1,200 ng/kg/min, 14 days, left ventricle
# Protocol: as §1
# Measurement of cardiac hypertrophy by morphometry analysis. […] Cardiomyocyte size (area and perimeter) was determined as described by Ocaranza et al. (J. Hypertens. 2010; 28:1054-1064). […]
# [3] = system: adult rat cardiac fibroblasts; assay: Cardiac fibroblast proliferation, cell count in Neubauer chamber; type: cell-based; conditions: DMEM F-12 5% FBS, 24 h, trypan blue cell count
# Protocol: Male Sprague-Dawley rats (250-300 g) were anesthetized with ketamine-xylazine (66 and 1.6 mg/kg i.p., respectively). Adult rat cardiac fibroblasts were isolated by retrograde aortic perfusion. Briefly, hearts were digested with collagenase type B solution for 1 h, and cells were centrifuged at 500 rpm for 2 min. The supernatant, mainly adult rat cardiac fibroblasts, was centrifuged at 1000 rpm for 10 min, resuspended in Dulbecco's Modified Eagle Medium: Nutrient Mixture F-12 (DMEM F-12) plus 15% fetal bovine serum (FBS) and then seeded in nontreated culture dishes during 3 h. Cells were washed with phosphate buffered saline to eliminate debris and nonadherent cells. Adult rat cardiac fibroblasts were used at passage one and seeded on 60 mm cell culture dishes in DMEM F-12 plus 10% FBS and incubated at […] for 3 h. To synchronize cells, they were washed and incubated in DMEM F-12 (without serum, 0% FBS) for 24 h before experimentation. Cell proliferation was determined in cardiac fibroblasts incubated for 24 h with and without retro-inverse angiotensin-(1-9) in DMEM F-12 5% FBS. Cells were trypsinized and cell number was determined using trypan blue method in a Neubauer chamber.
# [4] = system: spontaneously hypertensive rats (SHR); assay: Cardiac-resident macrophage phenotype M1/M2 in SHR, flow cytometry; type: in vivo, rat; conditions: SHR, 1,200 ng/kg/min, 14 days
# Protocol: as §1, with “sacrificed. […]” for “sacrificed.”
# [5] = system: spontaneously hypertensive rats (SHR); assay: Cardiac fibrosis in SHR, picrosirius red staining; type: in vivo, rat; conditions: SHR, 1,200 ng/kg/min, 14 days
# Protocol: as §1
# Evaluation of cardiac fibrosis. […] In hypertense SHR increased picrosirius red staining was detected in the hearts, indicating the presence of interstitial collagen, a marker of cardiac fibrosis.
structure (smiles),measurement,setting,value
"CC[C@@H](C)[C@@H](NC(=O)[C@@H](Cc1c[nH]cn1)NC(=O)[C@H]1CCCN1C(=O)[C@@H](Cc1ccccc1)NC(=O)[C@H](N)Cc1c[nH]cn1)C(=O)N[C@H](Cc1ccc(O)cc1)C(=O)N[C@@H](C(=O)N[C@H](CCCNC(=N)N)C(=O)N[C@H](CC(=O)O)C(=O)O)C(C)C [retro-inverse angiotensin-(1-9), NH2-^DH^DF^DP^DH^DI^DY^DV^DR^DD-COOH] (H-[dH][dF][dP][dH][dI][dY][dV][dR][dD]-OH)",diastolic blood pressure (DBP),[1],reduced SBP and DBP in a dose-dependent manner
same,systolic blood pressure (SBP),[1],reduced SBP and DBP in a dose-dependent manner
same,increase of area of cardiomyocytes induced by hypertension,[2],reversed the increase
same,increase of perimeter of cardiomyocytes induced by hypertension,[2],reversed the increase
same,fibroblast proliferation,[3],inhibited fibroblast proliferation
same,macrophages M1 in cardiac tissues,[4],reversed the increase; also recorded: more marked decrease in macrophages M1 than angiotensin-(1-9)
same,macrophages M2 in cardiac tissues,[4],increases the macrophages M2
same,accumulation of collagen in cardiac tissue,[5],completely revert
